This is an account of results in paper PMC12040169 (PLOS Biology, 2025).

The structures appear in SMILES notation.

The nature of the data set: in vitro. The conditions noted are these: human, hela cells, % viability.
By viability is commonly meant a read-out of living cells in per cent, often relative to untreated cells. Take `C=CCNC(=O)Cn1cccc2cc(-c3ccc(OC)cc3)nc1-2` [CBK285348]: the viability at 28.5 h, 10 µM was determined as 92.4%.

Consider `CN(C)C(=O)Cn1cccc2cc(-c3ccc(F)cc3)nc1-2` [CBK285349], for which the viability at 28.5 h, 10 µM stood at 105%.

For `FC(F)(F)c1[nH]c2ncccc2c1CN1CCN2CCCCC2C1` (centres unmarked) [CBK285355], the viability at 28.5 h, 10 µM was 80.9%.

On to `O=C(NCC1CCCO1)c1ccc(-n2ccnc2)c(-n2cccc2)c1` (centres unmarked) [CBK285356], for which the viability at 28.5 h, 10 µM stood at 98.2%.

For the compound `Cc1ccc(C2(CN3CCC(NC(=O)c4cc[nH]n4)CC3)CC2)cc1` [CBK285360], the viability at 28.5 h, 10 µM came to 97.8%.

Take `Cc1ccc(CN2C[C@@H]3CC[C@@](O)(c4ncccc4C)[C@@H]3C2)o1` [CBK285361]: the viability at 28.5 h, 10 µM is 82.6%.

For `C=CCNC(=O)Cn1c(-c2ccc(OC)cc2)cc2cccnc21` [CBK285363], the viability at 28.5 h, 10 µM turned out to be 83.2%.

Turning to `O=C(NCc1ccncc1)c1ccc(-n2ccnc2)c(-n2cccc2)c1` [CBK285367], the viability at 28.5 h, 10 µM was determined as 88.4%.

As for `O=C(NC1CCCC1)c1ccc(-n2ccnc2)c(-n2cccc2)c1` [CBK285368], the viability at 28.5 h, 10 µM was 94.1%.

As to `CCN(CC)C(=O)c1ccc(-n2ccnc2)c(-n2cccc2)c1` [CBK285371], the viability at 28.5 h, 10 µM was 86.3%.

Regarding `CC1CC(C)CN(C(=O)c2ccc(-n3ccnc3)c(-n3cccc3)c2)C1` (centres unmarked) [CBK285372], the viability at 28.5 h, 10 µM came out at 101%.

Take `Cn1nccc1C(=O)NC1CCN(CC2(c3ccccc3)CC2)CC1` [CBK285373]: the viability at 28.5 h, 10 µM stood at 106%.

For the compound `COc1ccc(C2(CN3CCC(NC(=O)C(C)C)CC3)CC2)cc1` [CBK285374], the viability at 28.5 h, 10 µM is 104%.

As for `OC1(c2cccnc2F)CCN(Cc2cc(F)cc(F)c2)CC1` [CBK285375], the viability at 28.5 h, 10 µM was 81.5%.

Regarding `O=C(NC1CC2(CCOCC2)Oc2ccccc21)c1cccs1` (centres unmarked) [CBK285377], the viability at 28.5 h, 10 µM was 85.6%.

Consider `O=C(NC1CC2(CCOCC2)Oc2ccccc21)c1ccco1` (centres unmarked) [CBK285378], for which the viability at 28.5 h, 10 µM is 98%.

`COc1ccc(-c2cc3cccn(CC(=O)N(C)C)c-3n2)cc1` [CBK285382]: the viability at 28.5 h, 10 µM stood at 105%.

For `O=C(Cn1c(-c2ccc(F)cc2)cc2cccnc21)N1CCOCC1` [CBK285383], the viability at 28.5 h, 10 µM worked out at 94.8%.

In the case of `O=C(Cn1c(-c2ccc(F)cc2)cc2cccnc21)N1CCCC1` [CBK285384], the viability at 28.5 h, 10 µM was 102%.

Turning to `CCN1CCN(Cc2c(C3CCCC3)[nH]c3ncccc23)CC1` [CBK285386], the viability at 28.5 h, 10 µM is 97%.

For the compound `COCC(=O)NC1CCN(CC2(c3ccc(F)cc3)CCCC2)CC1` [CBK285387], the viability at 28.5 h, 10 µM turned out to be 95.5%.

In the case of `CCC(C)NC(=O)Cn1c(C2CCOCC2)cc2cccnc21` (centres unmarked) [CBK285390], the viability at 28.5 h, 10 µM was 104%.

Regarding `Cn1nccc1C(=O)NC(Cc1ccsc1)c1cccnc1` (centres unmarked) [CBK285394], the viability at 28.5 h, 10 µM turned out to be 98.6%.

`O=C(CCc1ccno1)NC(Cc1ccsc1)c1cccnc1` (centres unmarked) [CBK285395]: the viability at 28.5 h, 10 µM worked out at 97.3%.

`O=C(Cn1cccn1)NC(Cc1ccsc1)c1cccnc1` (centres unmarked) [CBK285396]: the viability at 28.5 h, 10 µM turned out to be 97%.

On to `O=C(c1nc2ccccc2s1)C1CCNCC1` [CBK285397], for which the viability at 28.5 h, 10 µM is 103%.

In the case of `C=Cn1cc(CN2CCCC(O)(c3ccc(F)cc3)CC2)c(C)n1` (centres unmarked) [CBK285398], the viability at 28.5 h, 10 µM stood at 106%.

Turning to `COc1ccc(CN[C@@H]2CCC[C@H]2Cc2cc(C)no2)cc1` [CBK285401], the viability at 28.5 h, 10 µM came out at 94.4%.

With `Cc1cc(C[C@@H]2COC[C@H]2NCc2ccc(Cl)cc2)on1` [CBK285402], the viability at 28.5 h, 10 µM stood at 93.3%.

Regarding `Cc1cc(C2CCCCCN2C(=O)c2cc(C3CC3)on2)on1` (centres unmarked) [CBK285414], the viability at 28.5 h, 10 µM was found to be 90.1%.

Consider `Fc1ccc([C@@H]2CN(Cc3ccccn3)C[C@H]2c2cc[nH]n2)cc1` [CBK285416], for which the viability at 28.5 h, 10 µM amounted to 104%.

On to `FC(F)c1cc([C@@H]2CN(CC3CCOC3)C[C@H]2c2ccccc2)n[nH]1` (some centres unmarked) [CBK285430], for which the viability at 28.5 h, 10 µM is 98.5%.
